ChEMBL document CHEMBL1143305, “SAR and biological evaluation of analogues of a small molecule histone deacetylase inhibitor N-(2-aminophenyl)-4-((4-(pyridin-3-yl)pyrimidin-2-ylamino)methyl)benzamide (MGCD0103)” (Bioorg Med Chem Lett, 2009)
pEC50, pIC50: −log10 of the molar value. In brackets after ≈: the same amount, converted by molar mass. Activity calls are given as the source filed them. The calls are words filed in the database; no cut-off is given here.

Experiments:
[1] = Terminal half life in Sprague-Dawley rat at 2.5 mg/kg, iv up to 6 hrs; format: ADME, organism-based; design: dose 2.5 mg/kg, route intravenous; settings: in vivo, read-out: beta t1/2 (converted)
HCT-15 = experiment: Antitumor activity against human HCT15 cells xenografted in mouse at 5 mg/kg, po administered once daily for 12 days relative to control; format: functional
HMEC [2] = experiment: Selectivity ratio of IC50 for HMEC to IC50 for human HCT116 cells
[3] = Metabolic stability in human microsomes assessed as biotransformation rate; format: ADME, Microsome
[4] = Solubility at pH 6.8; format: physicochemical; settings: buffer
[5] = Clearance in Sprague-Dawley rat at 2.5 mg/kg, iv up to 6 hrs; format: ADME, organism-based; design: dose 2.5 mg/kg, route intravenous; settings: in vivo
Mus musculus [6] = experiment: Toxicity in mouse xenografted with human HCT15 cells at 5 to 20 mg/kg, po administered once daily for 12 days; format: organism-based, HCT-15; design: dose 5-20 mg/kg, route oral; settings: in vivo, 288 h
Histone deacetylase 5 = Histone deacetylase 5 (Homo sapiens, UniProt Q9UQL6); experiment: Inhibition of HDAC5
Sequence of Histone deacetylase 5 (Q9UQL6 whole entry): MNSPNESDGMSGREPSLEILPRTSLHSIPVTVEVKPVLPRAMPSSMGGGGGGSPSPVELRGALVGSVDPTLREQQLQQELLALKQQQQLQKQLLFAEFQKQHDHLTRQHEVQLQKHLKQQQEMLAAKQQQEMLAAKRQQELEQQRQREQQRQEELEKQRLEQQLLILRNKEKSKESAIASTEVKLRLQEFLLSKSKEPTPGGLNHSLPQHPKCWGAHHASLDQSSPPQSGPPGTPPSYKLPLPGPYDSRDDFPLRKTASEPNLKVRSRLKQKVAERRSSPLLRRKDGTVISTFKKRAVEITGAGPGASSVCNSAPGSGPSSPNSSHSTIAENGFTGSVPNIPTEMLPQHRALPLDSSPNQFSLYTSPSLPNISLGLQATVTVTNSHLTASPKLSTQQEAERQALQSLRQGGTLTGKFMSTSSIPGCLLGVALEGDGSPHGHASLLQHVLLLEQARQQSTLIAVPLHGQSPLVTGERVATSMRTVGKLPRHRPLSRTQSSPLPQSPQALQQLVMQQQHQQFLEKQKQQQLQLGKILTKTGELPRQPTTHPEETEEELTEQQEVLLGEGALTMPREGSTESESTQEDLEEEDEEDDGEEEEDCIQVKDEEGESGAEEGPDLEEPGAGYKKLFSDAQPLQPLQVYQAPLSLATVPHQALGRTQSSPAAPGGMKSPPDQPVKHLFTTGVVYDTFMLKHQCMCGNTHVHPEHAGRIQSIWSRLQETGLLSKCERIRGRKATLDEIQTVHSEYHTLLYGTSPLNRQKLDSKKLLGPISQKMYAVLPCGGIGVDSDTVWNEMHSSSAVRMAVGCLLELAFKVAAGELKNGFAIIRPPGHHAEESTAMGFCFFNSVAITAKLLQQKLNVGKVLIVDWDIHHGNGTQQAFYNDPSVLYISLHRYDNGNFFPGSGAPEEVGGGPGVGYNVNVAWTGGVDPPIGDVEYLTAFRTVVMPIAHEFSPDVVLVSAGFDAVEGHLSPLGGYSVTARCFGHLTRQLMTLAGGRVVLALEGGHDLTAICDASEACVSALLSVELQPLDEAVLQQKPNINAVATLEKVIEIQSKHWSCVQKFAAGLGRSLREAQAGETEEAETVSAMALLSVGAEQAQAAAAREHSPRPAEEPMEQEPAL

HCT-116 [7] = experiment: Induction of p21WAF1/CIP1 expression in human HCT116 cells assessed as […] after 16 hrs by luciferase assay; format: functional, cell-based
[8] = Antitumor activity against human TSU-Pr1 cells xenografted in mouse at 20 mg/kg, po administered once daily for 12 days relative to control; format: functional
HMEC [9] = experiment: Antiproliferative activity against HMEC by MTT assay; format: cell-based; settings: Homo sapiens
[10] = Oral bioavailability in Sprague-Dawley rat at 5 mg/kg up to 6 hrs; format: ADME, organism-based; settings: in vivo
Mus musculus [11] = experiment: Toxicity in mouse xenografted with human H460 cells at 5 to 20 mg/kg, po administered once daily for 12 days; format: organism-based; design: dose 5-20 mg/kg, route oral; settings: in vivo, 288 h
Histone deacetylase 1 = Histone deacetylase 1 (Homo sapiens, UniProt Q13547); experiment: Inhibition of human recombinant HDAC1
Sequence of Histone deacetylase 1 (Q13547 whole entry): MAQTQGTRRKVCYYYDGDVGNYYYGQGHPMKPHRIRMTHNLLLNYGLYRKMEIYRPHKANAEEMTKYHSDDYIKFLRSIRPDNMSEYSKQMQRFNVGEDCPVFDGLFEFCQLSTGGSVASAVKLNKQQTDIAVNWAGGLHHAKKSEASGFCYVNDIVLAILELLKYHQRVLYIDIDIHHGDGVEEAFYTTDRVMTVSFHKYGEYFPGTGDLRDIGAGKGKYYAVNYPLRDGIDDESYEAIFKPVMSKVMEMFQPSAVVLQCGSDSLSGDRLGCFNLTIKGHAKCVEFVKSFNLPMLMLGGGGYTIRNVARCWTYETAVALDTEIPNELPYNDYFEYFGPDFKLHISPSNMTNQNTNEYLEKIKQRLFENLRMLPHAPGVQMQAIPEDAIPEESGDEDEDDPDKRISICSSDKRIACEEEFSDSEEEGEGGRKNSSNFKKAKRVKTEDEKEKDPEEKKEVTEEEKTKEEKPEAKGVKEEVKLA

[12] = Solubility at pH 1.2; format: physicochemical; settings: buffer
Histone deacetylase 8 = target: T1, Histone deacetylase 8 (Homo sapiens, UniProt Q9BY41); experiment: Inhibition of HDAC8
T1 sequence (Q9BY41 whole entry): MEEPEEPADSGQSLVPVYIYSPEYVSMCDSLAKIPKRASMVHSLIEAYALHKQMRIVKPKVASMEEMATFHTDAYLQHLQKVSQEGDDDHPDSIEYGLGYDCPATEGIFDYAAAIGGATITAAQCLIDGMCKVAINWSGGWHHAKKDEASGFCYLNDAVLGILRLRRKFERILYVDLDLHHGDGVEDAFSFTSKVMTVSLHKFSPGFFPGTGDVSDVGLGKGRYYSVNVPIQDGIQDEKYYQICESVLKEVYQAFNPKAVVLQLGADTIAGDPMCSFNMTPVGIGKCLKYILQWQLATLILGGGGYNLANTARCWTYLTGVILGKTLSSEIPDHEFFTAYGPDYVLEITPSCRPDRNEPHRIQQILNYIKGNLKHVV

[13] = Volume of distribution at steady state in Sprague-Dawley rat at 2.5 mg/kg, iv up to 6 hrs; format: ADME, organism-based; design: dose 2.5 mg/kg, route intravenous; settings: in vivo, read-out: Vdss
Mus musculus [14] = experiment: Toxicity in mouse xenografted with human AZ-521 cells at 5 to 20 mg/kg, po administered once daily for 12 days; format: organism-based; design: dose 5-20 mg/kg, route oral; settings: in vivo, 288 h
[15] = Antitumor activity against human TSU-Pr1 cells xenografted in mouse at 10 mg/kg, po administered once daily for 12 days relative to control; format: functional
T-24 = experiment: Induction of histone H4 hyperacetylation in human T24 cells after 16 hrs by immunoblotting; format: functional, cell-based; settings: T-24, 16 h
HCT-116 [16] = experiment: cells; settings: Homo sapiens
Description: Antiproliferative activity against human HCT116 cells by MTT assay

[17] = Metabolic stability in rat microsomes assessed as biotransformation rate; format: ADME, Microsome
[18] = Metabolic stability in mouse microsomes assessed as biotransformation rate; format: ADME, Microsome
Mus musculus [19] = experiment: Toxicity in mouse xenografted with human TSU-Pr1 cells at 5 to 20 mg/kg, po administered once daily for 12 days; format: organism-based; design: dose 5-20 mg/kg, route oral; settings: in vivo, 288 h
[20] = Tmax in Sprague-Dawley rat at 5 mg/kg, po up to 6 hrs; format: ADME, organism-based; design: dose 5 mg/kg, route oral; settings: in vivo
[21] = Antitumor activity against human AZ-521 cells xenografted in mouse at 10 mg/kg, po administered once daily for 12 days relative to control; format: functional
Histone deacetylase 7 = target: T2, Histone deacetylase 7 (Homo sapiens, UniProt Q8WUI4); experiment: Inhibition of HDAC7
T2 sequence (Q8WUI4 whole entry): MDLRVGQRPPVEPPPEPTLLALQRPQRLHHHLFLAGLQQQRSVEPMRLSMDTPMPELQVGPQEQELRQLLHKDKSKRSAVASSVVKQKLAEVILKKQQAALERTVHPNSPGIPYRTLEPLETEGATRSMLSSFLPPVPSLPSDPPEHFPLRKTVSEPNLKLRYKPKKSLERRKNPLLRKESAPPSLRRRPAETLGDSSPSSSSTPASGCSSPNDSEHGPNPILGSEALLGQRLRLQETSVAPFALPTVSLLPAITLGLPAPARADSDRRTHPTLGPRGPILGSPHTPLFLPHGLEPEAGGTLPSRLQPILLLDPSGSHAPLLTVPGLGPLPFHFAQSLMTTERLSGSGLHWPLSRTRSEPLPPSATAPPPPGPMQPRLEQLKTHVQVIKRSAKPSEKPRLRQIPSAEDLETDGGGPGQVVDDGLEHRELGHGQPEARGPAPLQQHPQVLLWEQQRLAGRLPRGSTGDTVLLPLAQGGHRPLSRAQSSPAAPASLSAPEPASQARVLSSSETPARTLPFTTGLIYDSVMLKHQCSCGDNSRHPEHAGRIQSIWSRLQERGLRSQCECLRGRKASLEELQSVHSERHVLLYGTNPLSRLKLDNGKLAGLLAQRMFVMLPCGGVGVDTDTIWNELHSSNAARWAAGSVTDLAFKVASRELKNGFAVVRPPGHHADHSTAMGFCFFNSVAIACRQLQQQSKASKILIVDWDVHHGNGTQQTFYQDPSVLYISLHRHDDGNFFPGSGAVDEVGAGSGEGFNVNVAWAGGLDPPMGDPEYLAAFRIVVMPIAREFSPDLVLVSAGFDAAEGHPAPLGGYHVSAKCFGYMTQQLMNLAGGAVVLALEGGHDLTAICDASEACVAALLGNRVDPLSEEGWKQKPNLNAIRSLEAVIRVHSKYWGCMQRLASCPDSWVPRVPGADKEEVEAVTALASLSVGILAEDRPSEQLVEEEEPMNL

NCI-H460 = experiment: Antitumor activity against human H460 cells xenografted in mouse at 20 mg/kg, po administered once daily for 12 days relative to control; format: functional

**Q.** With `Nc1ccccc1NC(=O)c1ccc(CNc2nccc(-c3ccn[nH]3)n2)cc1` as the compound, how does the half-life [1] read?
**A.** Its half-life is 72 min.

**Q.** What about the T/C (HCT-15) of the same compound?
**A.** Its T/C is 79%.

**Q.** And the “Ratio IC50” value (HMEC [2])?
**A.** Its value is over 30.

**Q.** What about the Activity [3] of the same compound?
**A.** The Activity was 0.01 nmol/mg/min.

**Q.** And the solubility [4]?
**A.** Its solubility is 77 µg/mL (≈ 200 µM).

**Q.** And the clearance [5]?
**A.** Its clearance is 9.17 mL/min/kg.

**Q.** What about the Activity (Mus musculus [6]) of the same compound?
**A.** The Activity was “Non-toxic”.

**Q.** What about the pIC50 (Histone deacetylase 5) of the same compound?
**A.** The pIC50 was under 5.00.

**Q.** What about the Activity (HCT-116 [7]) of the same compound?
**A.** The Activity was “inactive”.

**Q.** And the T/C [8]?
**A.** Its T/C is 48%.

**Q.** And the pIC50 (HMEC [9])?
**A.** Its pIC50 is 4.62.

**Q.** And the bioavailability [10]?
**A.** Its bioavailability is 16%.

**Q.** And the Activity (Mus musculus [11])?
**A.** The Activity was “Non-toxic”.

**Q.** And the pIC50 (Histone deacetylase 1)?
**A.** Its pIC50 is 6.85.

**Q.** What about the solubility [12] of the same compound?
**A.** The solubility was over 1000 µg/mL.

**Q.** And the pIC50 (Histone deacetylase 8)?
**A.** Its pIC50 is under 5.00.

**Q.** And the Vd [13]?
**A.** The Vd was 0.13 L/kg.

**Q.** What about the Activity (Mus musculus [14]) of the same compound?
**A.** The Activity was “Non-toxic”.

**Q.** And the T/C [15]?
**A.** Its T/C is 61%.

**Q.** And the pEC50 (T-24)?
**A.** The pEC50 was 6.00.

**Q.** And the pIC50 (HCT-116 [16])?
**A.** The pIC50 was 6.52.

**Q.** What about the Activity [17] of the same compound?
**A.** The Activity was 0.043 nmol/mg/min.

**Q.** What about the Activity [18] of the same compound?
**A.** The Activity was 0.054 nmol/mg/min.

**Q.** And the Activity (Mus musculus [19])?
**A.** Its Activity is “Non-toxic”.

**Q.** And the Tmax [20]?
**A.** Its Tmax is 30 min.

**Q.** What about the T/C [21] of the same compound?
**A.** Its T/C is 53%.

**Q.** What about the pIC50 (Histone deacetylase 7) of the same compound?
**A.** The pIC50 was under 4.70.

**Q.** What about the T/C (NCI-H460) of the same compound?
**A.** Its T/C is 34%.
